Measurements reported in patent publication US7863321B2, “Anti-cancer combinations” (Cancer Research Technology Limited, priority 2001, dated 2011).
Structures can show the parent of a compound that is named as a salt. Where two headings read alike, the source gives them in different places. Marks after values point to notes of the source that are not given here.

Assays:
in vivo [1] = test: in vivo
Experimental: (§1) Compounds: A stock solution of DMXAA, synthesised in the Auckland Cancer Society Research Centre, was prepared in phosphate-buffered saline, protected from light and stored frozen. Cisplatin (Sigma Chemical Co., St. Louis, Mo.) was dissolved in 0.9% saline. Stock solutions of carboplatin and 5-fluorouracil (Bristol Myers Squibb, Sermonita, Italy) and cyclophosphamide (Mead Johnson Oncology Products, Princeton, N.J.) were diluted with sterile water. […] All compounds were administered to mice by i.p. injection at 0.01 ml/g bodyweight.
(§2) Animals and Tumours: Murine mammary carcinoma MDAH-Mca-4 tumours were grown from stocks stored in liquid nitrogen at the sixth transplant generation. Tumours (eighth transplant generation when used) were grown from 20 μl of cell suspension (7 mg packed cells), inoculated i.m. (intramuscular) in the right gastrocnemius muscle of female C3H/HeN mice (22-25 g at the time of treatment). Mice were randomised to treatment which commenced when the tumour+leg diameter reached 10-11 mm (0.5-0.7 g tumour).
(§3) Host Toxicity and Antitumour Activity: Mice were treated with chemotherapeutic drugs at a range of doses, at 1.33-fold increments, up to the expected MTD (maximum tolerated dose, as estimated in pilot experiments or from the literature). Toxicity was assessed as lethality, and body weight loss measured four days after treatment. Any animals becoming moribund were terminated and treated as drug-related deaths in the analysis. The diameter of the tumour-bearing leg was measured 3 times per week after treatment. Antitumour activity was assessed from the tumour growth delay, defined as the difference in time to reach the endpoint of 13 mm (1.5 g tumour) for treated and control groups. Responses were classed as cures if animals were free of evident tumour 120 days after treatment. The statistical significance of tumour growth inhibition was tested by ANOVA using SAS for Windows, with Dunnett's test to evaluate p-values for differences between treatment groups. In experiments with substantial numbers of cures (free of tumour for >120 days after treatment), statistical significance was tested by Kruskal-Wallis non-parametric analysis of variance using SAS for Windows, and the difference between treatment and control groups by Dunn's test using Sigmastat v2.0. The gradient and standard error of dose-response curves was determined by linear regression using Sigmastat, and the DMF (Dose Modifying Factor) calculated as the gradient with DMXAA/gradient without DMXAA.

MDAH-Mca-4 tumours = format: in vivo, C3H/HeN mice; details: for DMF: Dose Modifying Factor = gradient with DMXAA (80 μmol/kg)/gradient without DMXAA; for growth delays at their MTDs: chemotherapy drug alone at MTD; for Slope of dose/response: growth delay vs dose, linear regression; for single agent activity against MDAH-Mca-4 tumour: doses up to MTD
Experimental: as §1, §2, §3

[2] = system: PSN1 pancreatic tumour xenografts; test: PSN1 xenograft tumour volume tripling and doubling time; details: i.v., DMXAA 20 mg/kg, gemcitabine 240 mg/kg, female MF1 nude mice; for PSN1 volume doubling times, Median: control 3.2; for PSN1 volume tripling times, Median: control 4.9
tumour blood flow = details: Phase I clinical trials, well-tolerated doses; cited from earlier work
in vivo [3] = details: female, C3H/HeN, mouse, plasma, ip, 80 μmol/kg
Experimental: (§4) Pharmacokinetics: Female C3H/HeN mice bearing MDAH-Mca-4 tumours (0.5-0.7 g) were injected i.p. with carboplatin (316 μmol/kg), DMXAA (80 μmol/kg), or simultaneously received carboplatin and DMXAA, at the same doses. […] Groups of 2-5 mice were used for each time point.
(§5) HPLC analysis of DMXAA: Concentrations of DMXAA in plasma were determined as follows. Aliquots of plasma (50 μl) were treated with 1 ml of ice-cold acetonitrile:methanol (3:1 v/v), centrifuged, and the resulting supernatants evaporated using a Speed-Vac solvent concentrator (Savant Instruments, NY). The residues were dissolved in 200 μl of 10 mM ammonium acetate buffer (pH 5) and 25 μl was analysed by HPLC using a HP1100 system with diode array detector (278 nm) and fluorescence detector. The column used was a 3.2 mm×150 mm C8 5 μm column (Alltima Associates Inc., Deerfield, Ill.) and a flow rate of 0.7 ml/min, with a mobile phase of 16% acetonitrile (v/v) in 10 mM ammonium acetate buffer (pH 5). The retention time for DMXAA was 7.3 min. […] The intra- and inter-assay precision and accuracy gave coefficients of variation <7%, and an average recovery of 70%. The lower sensitivity limit of detection by fluorescence (signal:noise ratio of 3) was 0.1 μM. […]

[4] = Pharmacokinetics of carboplatin (platinum by ICP-MS) and DMXAA (HPLC) in plasma and tumour; details: plasma; DMXAA 80 μmol/kg i.p.; (% CV)
Experimental: as §4, §5

[5] = chemotherapy drug alone, i.p., mice bearing MDAH-Mca-4 tumours
[6] = chemotherapy drug co-administered with DMXAA 80 μmol/kg, i.p.
[7] = chemotherapy drug alone, ± standard error of the slope
[8] = co-administered with DMXAA 80 μmol/kg
[9] = female, C3H/HeN, mouse, in vivo, ip, MTD
[10] = DMXAA alone at 80 μmol/kg, i.p.
[11] = female, C3H/HeN, mouse, in vivo, ip

## N.N.[Cl][Pt][Cl] [Cisplatin]
In vivo [1]; chemotherapy drug alone, i.p.
  % body weight change at 4 days: −9.5 ± 1.4%
In vivo [1]; [5]
  MTD: 42.1 µmol/kg
In vivo [1]; [6]
  % body weight change at 4 days: −14.4 ± 2.3%
  MTD: 42.1 µmol/kg
MDAH-Mca-4 tumours
  DMF: 1.8 ± 1.2
  growth delays at their MTDs: ~10 days
MDAH-Mca-4 tumours; [7]
  Slope of dose/response: 0.19 ± 0.06 days/µmol/kg
MDAH-Mca-4 tumours; [8]
  Slope of dose/response: 0.35 ± 0.12 days/µmol/kg

## O=c1[nH]cc(F)c(=O)[nH]1 [5-fluorouracil, 5-fluoro-2,4(1H,3H)-pyrimidinedione]
In vivo [1]; chemotherapy drug alone, i.p.
  % body weight change at 4 days: −8.5 ± 0.8%
In vivo [1]; [6]
  % body weight change at 4 days: −14.1 ± 1.5%
In vivo [1]; [9]
  MTD: 1780 µmol/kg
MDAH-Mca-4 tumours
  DMF: 0.5 ± 0.2
  growth delays at their MTDs: ~10 days
MDAH-Mca-4 tumours; [7]
  Slope of dose/response: 0.0051 ± 0.001^a days/μmol/kg
MDAH-Mca-4 tumours; [8]
  Slope of dose/response: 0.0027 ± 0.001 days/µmol/kg

## Nc1ccn([C@@H]2O[C@H](CO)[C@@H](O)C2(F)F)c(=O)n1 [gemcitabine, 2′-deoxy-2′,2′-difluorocytidine monohydrochloride (b-isomer)]
[2]
  PSN1 volume doubling times, Treated-Control: 7.5 days
  PSN1 volume tripling times, Treated-Control: 9.0 days
  PSN1 volume doubling times, Median: 9.7 days
  PSN1 volume tripling times, Median: 13.9 days

## N.N.O=C([O-])C1(C(=O)[O-])CCC1.[Pt+2] [Carboplatin, platinum, diammine [1,1-cyclobutanedicarboxylato(2-)-0,0′]-, (SP-4-2)]
In vivo [1]; chemotherapy drug alone, i.p.
  % body weight change at 4 days: −5.6 ± 1.5%
In vivo [1]; [5]
  MTD: 316 µmol/kg
In vivo [1]; [6]
  % body weight change at 4 days: −8.5 ± 1.4%
  MTD: 316 µmol/kg
MDAH-Mca-4 tumours
  DMF: 3.4 ± 2.3
MDAH-Mca-4 tumours; chemotherapy drug alone
  single agent activity against MDAH-Mca-4 tumour: essentially inactive
MDAH-Mca-4 tumours; [7]
  Slope of dose/response: 0.0094 ± 0.0035 days/µmol/kg
MDAH-Mca-4 tumours; [8]
  Slope of dose/response: 0.032 ± 0.010 days/µmol/kg

## Cc1ccc2c(=O)c3cccc(CC(=O)O)c3oc2c1C [DMXAA, 5,6-dimethylxanthenone-4-acetic acid]
MDAH-Mca-4 tumours; [10]
  mean tumour growth delays (range): 3.5 to 8.3 days
  tumour growth delay, overall mean: 6.6 ± 0.6 days
Tumour blood flow
  tumour blood flow by dynamic MRI: significant reduction in tumour blood flow
In vivo [3]
  Km: 220 µM
[2]
  PSN1 volume doubling times, Treated-Control: 0.4 days
  PSN1 volume tripling times, Treated-Control: 1.1 days
  PSN1 volume doubling times, Median: 3.6 days
  PSN1 volume tripling times, Median: 6.0 days
[4]
  Vmax: 63 (6.1) μm hr^−1

## O=P1(N(CCCl)CCCl)NCCCO1 (centres unmarked) [Cyclophosphamide, 2-[bis(2-chloroethyl)amino]tetrahydro-2H-13,2-oxazaphosphorine-2-oxide monohydrate]
In vivo [1]; chemotherapy drug alone, i.p.
  % body weight change at 4 days: −0.8 ± 1.3%
In vivo [1]; [6]
  % body weight change at 4 days: −9.2 ± 1.4%
In vivo [1]; [11]
  MTD at 4 days: ≥ 1340 µmol/kg
MDAH-Mca-4 tumours
  DMF: 2.7 ± 0.3
  growth delays at their MTDs: ~10 days
MDAH-Mca-4 tumours; [7]
  Slope of dose/response: 0.0062 ± 0.0001 days/µmol/kg
MDAH-Mca-4 tumours; [8]
  Slope of dose/response: 0.0167 ± 0.0013 days/µmol/kg

## CC[C@]1(O)C[C@H]2CN(CCc3c([nH]c4ccccc34)[C@@](C(=O)OC)(c3cc4c(cc3OC)N(C=O)[C@H]3[C@@](O)(C(=O)OC)[C@H](OC(C)=O)[C@]5(CC)C=CCN6CC[C@]43[C@@H]65)C2)C1 [Vincristine]
In vivo [1]; chemotherapy drug alone, i.p.
  % body weight change at 4 days: −7.0 ± 1.2%
In vivo [1]; [6]
  % body weight change at 4 days: −10.0 ± 1.4%
In vivo [1]; female, C3H/HeN, mouse, in vivo, ip, MTD, chemotherapy drug alone, mice bearing MDAH-Mca-4 tumours
  MTD: 1 µmol/kg
In vivo [1]; female, C3H/HeN, mouse, in vivo, ip, MTD, chemotherapy drug co-administered with DMXAA 80 μmol/kg
  MTD: 1 µmol/kg
MDAH-Mca-4 tumours
  DMF: >7^c
MDAH-Mca-4 tumours; chemotherapy drug alone
  single agent activity against MDAH-Mca-4 tumour: essentially inactive
MDAH-Mca-4 tumours; [7]
  Slope of dose/response: -0.0 ± 1.3 days/µmol/kg
MDAH-Mca-4 tumours; [8]
  Slope of dose/response: 14.1 ± 5.4 days/µmol/kg

## COc1cccc2c1C(=O)c1c(O)c3c(c(O)c1C2=O)C[C@@](O)(C(=O)CO)C[C@@H]3O[C@H]1C[C@H](N)[C@H](O)[C@H](C)O1 [Doxorubicin, (8S,10S)-10-[(3-amino-2,3,6-trideoxy-a-L-lyxo-hexopyranosyl)oxy]-8-glycolyl-7,8,9,10-tetrahydro-6,8,11-trihydroxy-1-meth-oxy-5,12-naphthacenedione hydrochloride]
In vivo [1]; chemotherapy drug alone, i.p.
  % body weight change at 4 days: −3.9 ± 0.6%
In vivo [1]; [6]
  % body weight change at 4 days: −5.5 ± 1.2%
In vivo [1]; [11]
  MTD: 17.8 µmol/kg
In vivo [1]; [9]
  MTD: 23.7 µmol/kg
MDAH-Mca-4 tumours
  DMF: 2.5 ± 1.1
  growth delays at their MTDs: ~10 days
MDAH-Mca-4 tumours; [7]
  Slope of dose/response: 0.42 ± 0.10 days/µmol/kg

## COc1cc([C@@H]2c3cc4c(cc3[C@@H](O[C@@H]3O[C@@H]5CO[C@@H](C)O[C@H]5[C@H](O)[C@H]3O)[C@H]3COC(=O)[C@H]23)OCO4)cc(OC)c1O [Etoposide, 4′-demethylepipodophyllotoxin-9-[4,6-0-(R)-ethylidene-(beta)-D-glucopyranoside]]
In vivo [1]; chemotherapy drug alone, i.p.
  % body weight change at 4 days: −2.0 ± 1.7%
In vivo [1]; [6]
  % body weight change at 4 days: −6.5 ± 3.3%
In vivo [1]; [9]
  MTD: ≥ 75 µmol/kg
MDAH-Mca-4 tumours
  DMF: 4.7 ± 2.9
MDAH-Mca-4 tumours; chemotherapy drug alone
  single agent activity against MDAH-Mca-4 tumour: essentially inactive
MDAH-Mca-4 tumours; [7]
  Slope of dose/response: 0.030 ± 0.010 days/µmol/kg
MDAH-Mca-4 tumours; [8]
  Slope of dose/response: 0.14 ± 0.04 days/µmol/kg
